# Where a name gives a salt, the structure may show the parent alone. Read-outs that look alike come from different tables or passages of the source.
# Assays:
# human arginase I (ARG I) = target: T1, human arginase I (ARG I) (Homo sapiens, UniProt P05089); assay: Inhibition of arginase I, spectrophotometric urea assay at 530 nm; assay type: biochemical; conditions: read-out: Potency (ARG I)
# T1 sequence (P05089 1-322): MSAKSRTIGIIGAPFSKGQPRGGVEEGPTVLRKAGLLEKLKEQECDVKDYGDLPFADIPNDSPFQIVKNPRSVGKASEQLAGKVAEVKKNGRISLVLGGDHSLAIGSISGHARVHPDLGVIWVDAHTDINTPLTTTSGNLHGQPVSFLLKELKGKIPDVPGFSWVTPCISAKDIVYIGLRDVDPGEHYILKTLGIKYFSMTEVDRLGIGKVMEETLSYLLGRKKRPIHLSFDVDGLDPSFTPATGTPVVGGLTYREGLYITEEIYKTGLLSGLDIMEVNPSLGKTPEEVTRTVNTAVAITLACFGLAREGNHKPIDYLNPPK
# Summary of the method: (§1)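 IC50 was derived by regression of OD530 normalized to uninhibited-enzyme controls against log concentration. Urea from 60-min, 37 °C turnover of L-arginine with manganese sulfate was detected after acid o-phthaldialdehyde/primaquine quench and 10 min colour development. Arginase I and II came from 100 ng/ml stocks in pH 7.4 phosphate with ovalbumin.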
# arginase II (ARG II) = target: T2, arginase II (ARG II) (Homo sapiens, UniProt P78540); assay: Inhibition of arginase II, spectrophotometric urea assay at 530 nm; assay type: biochemical
# T2 sequence (P78540 23-354): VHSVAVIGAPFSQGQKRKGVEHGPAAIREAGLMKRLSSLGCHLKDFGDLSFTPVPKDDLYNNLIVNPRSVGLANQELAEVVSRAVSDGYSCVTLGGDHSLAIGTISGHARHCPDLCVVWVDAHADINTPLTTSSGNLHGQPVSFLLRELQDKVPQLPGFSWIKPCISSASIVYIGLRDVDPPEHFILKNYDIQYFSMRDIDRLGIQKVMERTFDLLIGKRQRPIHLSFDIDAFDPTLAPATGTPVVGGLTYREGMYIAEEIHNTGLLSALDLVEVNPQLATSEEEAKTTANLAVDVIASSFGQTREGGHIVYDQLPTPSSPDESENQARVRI
# Summary of the method: as §1
# [1] = Formula II compounds, Table 2-A
# [2] = Formula II compounds, Table 2-A, read-out: Potency (ARG)
# [3] = Formula I compounds, Table 2, read-out: Potency (ARG II)
Structure (SMILES),IC50 (human arginase I (ARG I); [1]) [µM],IC50 (arginase II (ARG II); [2]) [µM],"IC50 (human arginase I (ARG I); Formula I compounds, Table 2) [µM]",IC50 (arginase II (ARG II); [3]) [µM]
"CC(C)(C)NCCC(N)(CCCCB(O)O)C(=O)O (centres unmarked) [compound 67, 2-amino-6-borono-2-(2-(tert-butylamino)ethyl)hexanoic acid dihydrochloride]",,,0.251 to 1,0.251 to 1
"NC(CCCCB(O)O)(CCNC1CC1)C(=O)O (centres unmarked) [compound 68, 2-amino-6-borono-2-(2-(cyclopropylamino)ethyl)hexanoic acid dihydrochloride]",,,0.251 to 1,0.251 to 1
"NC(CCCCB(O)O)(CCN1CCC[C@H]1CN1CCCC1)C(=O)O (stereo partly drawn) [compound 40, 2-amino-6-borono-2-(2-((S)-2-(pyrrolidin-1-ylmethyl)pyrrolidin-1-yl)ethyl)hexanoic acid trihydrochloride]",,,1 to 2,2 to 5
"CNC(CCCCB(O)O)(CCCNC1Cc2ccccc2C1)C(=O)O (centres unmarked) [compound 138, 6-borono-2-(3-(2,3-dihydro-1H-inden-2-ylamino)propyl)-2-(methylamino)hexanoic acid dihydrochloride]",,,0.0001 to 0.25,0.0001 to 0.25
"NC(CCCCB(O)O)(CCC1Cc2ccccc2CN1CC1CCCCC1)C(=O)O (centres unmarked) [compound 134, 2-amino-6-borono-2-(2-(2-(cyclohexylmethyl)-1,2,3,4-tetrahydroisoquinolin-3-yl)ethyl)hexanoic acid dihydrochloride]",,,0.0001 to 0.25,0.251 to 1
"CN(CCC(N)(CCCCB(O)O)C(=O)O)Cc1ccc(F)c(C(F)(F)F)c1 (centres unmarked) [compound 48, 2-amino-6-borono-2-(2-((4-fluoro-3-(trifluoromethyl)benzyl)(methyl)amino)ethyl)hexanoic acid dihydrochloride]",,,2 to 5,> 5
"NC(CCCCB(O)O)(C(=O)O)C(O)CCC(F)(F)F (centres unmarked) [compound 111, 2-amino-2-(4-boronobutyl)-6,6,6-trifluoro-3-hydroxyhexanoic acid hydrochloride]",,,2 to 5,2 to 5
"CCN(CC)C(=O)C1CCCN(CCC(N)(CCCCB(O)O)C(=O)O)C1 (centres unmarked) [compound 23, 2-Amino-6-borono-2-[2-(3-diethylcarbamoyl-piperidin-1-yl)-ethyl]-hexanoic acid dihydrochloride]",,,0.251 to 1,0.251 to 1
"CCN(CCC(N)(CCCCB(O)O)C(=O)O)Cc1ccccc1 (racemic) [compound 19, (R/S)-2-Amino-2-[2-(benzyl-ethyl-amino)-ethyl]-6-borono-hexanoic acid dihydrochloride]",,,2 to 5,1 to 2
"NC(CCCCB(O)O)(CC1CN(Cc2ccc(Cl)c(Cl)c2)C1)C(=O)O (centres unmarked) [compound 117, 2-amino-6-borono-2-((1-(3,4-dichlorobenzyl)azetidin-3-yl)methyl)hexanoic acid dihydrochloride]",,,0.251 to 1,2 to 5
"CN(CC[C@](N)(CCCCB(O)O)C(=O)O)C[C@@H](O)c1cccc(O)c1 [compound 12, (R)-2-amino-6-borono-2-(2-(((S)-2-hydroxy-2-(3-hydroxyphenyl)ethyl)(methyl)amino)ethyl)hexanoic acid dihydrochloride]",,,0.0001 to 0.25,0.0001 to 0.25
"NC(CCCCB(O)O)(CCNC1Cc2ccccc2C1)C(=O)O (centres unmarked) [compound 58, 2-amino-6-borono-2-(2-(2,3-dihydro-1H-inden-2-ylamino)ethyl)hexanoic acid dihydrochloride]",,,0.0001 to 0.25,0.0001 to 0.25

# Next, values leading:
IC50 (human arginase I (ARG I); [1]) [µM],IC50 (arginase II (ARG II); [2]) [µM],"IC50 (human arginase I (ARG I); Formula I compounds, Table 2) [µM]",IC50 (arginase II (ARG II); [3]) [µM],Structure (SMILES)
0.0001 to 0.25,0.0001 to 0.25,,,"CC(C)CCN1CCC(C(N)(CCCCB(O)O)C(=O)O)CC1 (centres unmarked) [Example 92-A, 2-amino-6-borono-2-(1-isopentylpiperidin-4-yl)hexanoic acid dihydrochloride]"
0.0001 to 0.25,0.251 to 1,,,"NC(CCCCB(O)O)(C(=O)O)C1CCN(CCCc2cc(F)cc(Cl)c2)CC1 (centres unmarked) [Example 50-A, 2-amino-6-borono-2-(1-(3-(3-chloro-5-fluorophenyl)propyl)piperidin-4-yl)hexanoic acid]"
1 to 2,2 to 5,,,NC(CCCCB(O)O)(C(=O)O)C1CCN(c2cc(C(F)(F)F)ccn2)CC1 (centres unmarked) [9-A]
0.251 to 1,0.251 to 1,,,"NC1CCC(C(N)(CCCCB(O)O)C(=O)O)CC1 (centres unmarked) [20-A, 2-amino-2-(4-aminocyclohexyl)-6-boronohexanoic acid dihydrochloride]"
0.251 to 1,0.251 to 1,,,"NC(CCCCB(O)O)(C(=O)O)[C@@H]1CCN(Cc2ccccc2)C1 (stereo partly drawn) [Example 67-A, 2-amino-2-((R)-1-benzylpyrrolidin-3-yl)-6-boronohexanoic acid dihydrochloride]"
2 to 5,2 to 5,,,"NC(CCCCB(O)O)(C(=O)O)C1CNC1 (centres unmarked) [18-A, 2-amino-2-(azetidin-3-yl)-6-boronohexanoic acid dihydrochloride]"
0.0001 to 0.25,0.0001 to 0.25,,,"NC(CCCCB(O)O)(C(=O)O)C1CCN(Cc2ccc(Cl)cc2)CC1 (centres unmarked) [Example 89-A, 2-amino-6-borono-2-(1-(4-chlorobenzyl)piperidin-4-yl)hexanoic acid dihydrochloride]"
,,0.0001 to 0.25,0.251 to 1,"CC(C)NCCC(N)(CCCCB(O)O)C(=O)O (centres unmarked) [compound 55, 2-amino-6-borono-2-(2-(isopropylamino)ethyl)hexanoic acid dihydrochloride]"
0.251 to 1,0.251 to 1,,,"NC(CCCCB(O)O)(C(=O)O)[C@@H]1CCN(Cc2ccc(C(F)(F)F)cc2)C1 (mixture of isomers) [38-A, 2-amino-6-borono-2-((R)-1-(4-(trifluoromethyl)benzyl)pyrrolidin-3-yl)hexanoic acid dihydrochloride]"
0.251 to 1,0.251 to 1,,,"NC(CCCCB(O)O)(C(=O)O)C1CCNCC1 (centres unmarked) [Example 88-A, 2-amino-6-borono-2-(piperidin-4-yl)hexanoic acid dihydrochloride]"
,,0.251 to 1,0.251 to 1,"N[C@](CCCCB(O)O)(CCN1CCC(O)CC1)C(=O)O [compound 4, (R)-2-amino-6-borono-2-(2-(4-hydroxypiperidin-1-yl)ethyl)hexanoic acid dihydrochloride]"
,,2 to 5,2 to 5,"NC(CCCCB(O)O)(CCN1CCC[C@@H](C(=O)O)C1)C(=O)O (stereo partly drawn) [compound 53, (3R)-1-(3-amino-7-borono-3-carboxyheptyl)piperidine-3-carboxylic acid]"
2 to 5,2 to 5,,,"NC(CCCCB(O)O)(C(=O)O)C1CCN(C(=O)Cc2ccc(F)cc2)CC1 (centres unmarked) [28-A, 2-amino-6-borono-2-{1-[(4-fluorophenyl)acetyl]-piperidin-4-yl}hexanoic acid hydrochloride]"
,,1 to 2,2 to 5,"NC(CCCCB(O)O)(CCN1CCC[C@H](C(=O)O)C1)C(=O)O (stereo partly drawn) [compound 56, (3S)-1-(3-amino-7-borono-3-carboxyheptyl)piperidine-3-carboxylic acid dihydrochloride]"
,,1 to 2,1 to 2,"CC1(C(=O)O)CCN(CCC(N)(CCCCB(O)O)C(=O)O)CC1 (centres unmarked) [compound 57, 1-(3-amino-7-borono-3-carboxyheptyl)-4-methylpiperidine-4-carboxylic acid]"
0.0001 to 0.25,0.0001 to 0.25,,,"NC(CCCCB(O)O)(C(=O)O)C1CCN(CCc2ccc(F)c(F)c2)CC1 (centres unmarked) [Example 59-A, 2-amino-6-borono-2-(1-(3,4-difluorophenethyl)piperidin-4-yl)hexanoic acid acid dihydrochloride]"

# Source: US9994594B2, “Inhibitors of arginase and their therapeutic applications” (MARS, INCORPORATED, priority 2010, dated 2018)
